Earlier results in patent publication US20070218119A1, “STEROL ENRICHED MIXED LAMMELARITY AMPHOTERICIN INTERCALATING LIPOSOMES IN SALINE AND THE PROCESS FOR THEIR PREPARATION” (priority 2004, published 2007).

Settings: conventional Amphotericin B mixed with 0.9% Sodium Chloride (Martindale)

C[C@@H]1[C@H](O)[C@@H](C)/C=C/C=C/C=C/C=C/C=C/C=C/C=C/[C@H](O[C@@H]2O[C@H](C)[C@@H](O)[C@H](N)[C@@H]2O)C[C@@H]2O[C@](O)(C[C@@H](O)C[C@@H](O)[C@H](O)CC[C@@H](O)C[C@@H](O)CC(=O)O[C@H]1C)C[C@H](O)[C@H]2C(=O)O [conventional Amphotericin B, Amphotericin B]
precipitation in 0.9% Sodium Chloride: precipitation of Amphotericin B
